Assay results published in patent publication US12532889B2, “Herbicidal compositions comprising glufosinate” (BASF SE, priority 2023, dated 2026).

Legend:
Experiment in all cases: Post-emergence application in field trials (Example A)
Format in all cases: in vivo
AVEFA (Avena fatua) = conditions: Table 3.1; AVEFA growth stage 22-24, height 18-29 cm; A-1 12.5, B-2 500 g ai/ha; 28 DAT; water 100 l/ha
Summary of the method: (§1)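 Colby-expected additive activity (E) served as reference for mixture responses in post-emergence field trials on natural or seeded weeds. Activity was visually scored 0–100% against untreated controls at indicated DAT.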

AVESG (Avena strigosa) = conditions: Table 1.6; AVESG growth stage 11-21, height 5-10 cm; A-1 25, B-2 400 g ai/ha; 14 DAT; water 200 l/ha
Summary of the method: as §1

BIDPI (Bidens pilosa) = conditions: Table 1.14; BIDPI height 20-45 cm; A-1 50, B-2 400 g ai/ha; 21 DAT; water 100 l/ha
Summary of the method: as §1

CNDSS (Conyza sp.) = conditions: Table 1.5; CNDSS growth stage 26-59, height 15-55 cm; A-1 50, B-2 600 g ai/ha; 14 DAT; water 200 l/ha
Summary of the method: as §1

[1] = test system: CYPES (Cyperus esculentus); conditions: 21 DAT, water 140 l/ha
Summary of the method: as §1

GALAP (Galium aparine) = conditions: Table 3.1; GALAP growth stage 11-16, height 2-20 cm; A-1 18, B-2 500 g ai/ha; 28 DAT; water 100 l/ha
Summary of the method: as §1

[2] = test system: HORVS (Hordeum vulgare (spring barley)); conditions: Table 3.1, HORVS volunteer barley, growth stage 22-24, height 32-35 cm, 28 DAT, water 100 l/ha
Summary of the method: as §1

IPOTR (Ipomoea triloba) = conditions: 21 DAT
Summary of the method: as §1

[3] = test system: CYPDI (Cyperus difformis); conditions: CYPDI height 25 cm
Protocol: (§2) In the examples below, using the method of S. R. Colby (1967) “Calculating synergistic and antagonistic responses of herbicide combinations”, Weeds 15, p. 22ff., the value E, which is expected if the activity of the individual active compounds is only additive, was calculated:
(§3) [formula] • where • X=percent activity using active herbicide A at an application rate a; • Y=percent activity using active herbicide B (e.g. glufosinate) at an application rate b; • E=expected activity (in %) by A+B at application rates a+b.
(§4) If the value found experimentally is higher than the value E calculated according to Colby, a synergistic effect is present.
(§5) On field test sites, natural weed infestation or seeded weeds were treated post-emergence of the weeds.
(§6) In the field trials, the weeds were treated as indicated below.
(§7) In the following experiments, the herbicidal activity for the individual herbicidal compositions (solo and mixture applications) was assessed at the indicated days after treatment (DAT). The assessments for the damage on undesired weeds caused by the composition was carried out using a scale from 0 to 100%, compared to the untreated control plants. Here, 0 means no damage and 100 means complete destruction of the plants.
(§8) Post-emergence application of Herbicide A-1 (A-1) and glufosinate ammonium (B-2) in Field Trials:
(§9) Herbicide A-1 (50 g/l), glufosinate ammonium (200 g/l) and optional herbicide C were, together with addition of 0.5% v/v MSO (methylated seed oil) as adjuvant, formulated in water as distribution medium as indicated and sprayed with commercial flat fan nozzles.

[4] = test system: DIGIN = TRCIN (Digitaria insularis)
Protocol: as §2, §3, §4, §5, §6, §7, §8, §9

ELEIN (Eleusine indica) = test system: ELEIN (Eleusine indica)
Protocol: as §2, §3, §4, §5, §6, §7, §8, §9

EPHHI (Euphorbia hirta) = conditions: Table 1.2; EPHHI height 25 cm; B-2 solo 400 g ai/ha; 14 DAT; water volume 100 l/ha; 0.5% v/v MSO
Protocol: as §2, §3, §4, §5, §6, §7, §8, §9

[5] = test system: SPCHI (Spermacoce hispida); conditions: Table 1.2; SPCHI height 25 cm; B-2 solo 400 g ai/ha; 14 DAT; water volume 100 l/ha; 0.5% v/v MSO
Protocol: as §2, §3, §4, §5, §6, §7, §8, §9

[6] = test system: COMDI (Commelina diffusa); conditions: Table 5.3; COMDI growth stage 76-77; A-1 25, B-6 252 g ai/ha; 28 DAT; water 300 l/ha
Summary of the method: as §1

GLXMA (Glycine max) = conditions: 21 DAT; B-6 252 g ai/ha; growth stage 13; height 5-10 cm
Summary of the method: as §1

[7] = test system: PASSC (Paspalum scrobiculatum); conditions: Table 5.2, A-1 25, B-6 252 g ai/ha, 21 DAT, water 450 l/ha
Summary of the method: as §1

Q: With CP(=O)(O)CCC(N)C(=O)O (stereo not drawn) [B-2, glufosinate-ammonium] as the compound, how does the “% herbicidal activity” value (AVEFA (Avena fatua)) read?
A: Its value is 68%.

Q: What about the “% herbicidal activity” value (AVESG (Avena strigosa)) of the same compound?
A: The value was 83%.

Q: What about the “% herbicidal activity” value (BIDPI (Bidens pilosa)) of the same compound?
A: Its value is 55%.

Q: What about the “% herbicidal activity” value (CNDSS (Conyza sp.)) of the same compound?
A: The value was 90%.

Q: And the “% herbicidal activity” value ([1]; Table 4.2, A-1 25, B-2 655 g ai/ha)?
A: The value was 18%.

Q: What about the “% herbicidal activity” value ([1]; Table 4.2, A-1 50, B-2 655 g ai/ha) of the same compound?
A: Its value is 18%.

Q: What about the “% herbicidal activity” value (GALAP (Galium aparine)) of the same compound?
A: The value was 27%.

Q: What about the “% herbicidal activity” value ([2]; A-1 12.5, B-2 500 g ai/ha) of the same compound?
A: The value was 15%.

Q: What about the “% herbicidal activity” value ([2]; A-1 18, B-2 500 g ai/ha) of the same compound?
A: Its value is 15%.

Q: And the “% herbicidal activity” value (IPOTR (Ipomoea triloba); Table 1.11, A-1 25, B-2 400 g ai/ha, water 100 l/ha)?
A: The value was 60%.

Q: And the “% herbicidal activity” value (IPOTR (Ipomoea triloba); Table 1.16, A-1 25, B-2 400 g ai/ha, water 200 l/ha)?
A: The value was 68%.

Q: What about the “% herbicidal activity” value ([3]; Table 1.15, A-1 25, B-2 400 g ai/ha, 21 DAT, water 100 l/ha) of the same compound?
A: Its value is 10%.

Q: What about the “% herbicidal activity” value ([3]; Table 1.2, B-2 solo 400 g ai/ha, 14 DAT, water volume 100 l/ha, 0.5% v/v MSO) of the same compound?
A: The value was 20%.

Q: And the “% herbicidal activity” value ([4]; Table 1.13, DIGIN height 20-30 cm, A-1 50, B-2 400 g ai/ha, 21 DAT, water 100 l/ha)?
A: The value was 20%.

Q: And the “% herbicidal activity” value ([4]; Table 1.17, DIGIN height 20-30 cm, A-1 50, B-2 400 g ai/ha, 21 DAT, water 200 l/ha)?
A: The value was 30%.

Q: What about the “% herbicidal activity” value ([4]; Table 1.19, DIGIN height 20-30 cm, A-1 50, B-2 400 g ai/ha, 21 DAT, water 200 l/ha) of the same compound?
A: The value was 30%.

Q: What about the “% herbicidal activity” value ([4]; Table 1.20, DIGIN height 60-80 cm, A-1 50, B-2 400 g ai/ha, 21 DAT, water 200 l/ha) of the same compound?
A: Its value is 57%.

Q: What about the “% herbicidal activity” value ([4]; Table 1.22, DIGIN in tillering stage, height 5-15 cm, A-1 50, B-2 400 g ai/ha, 21 DAT, water 200 l/ha) of the same compound?
A: The value was 35%.

Q: And the “% herbicidal activity” value ([4]; Table 1.22, DIGIN in tillering stage, height 5-15 cm, A-1 50, B-2 600 g ai/ha, 21 DAT, water 200 l/ha)?
A: Its value is 70%.

Q: And the “% herbicidal activity” value ([4]; Table 1.23, DIGIN growth stage 16-18, height 15-25 cm, A-1 50, B-2 400 g ai/ha, 21 DAT, water 200 l/ha)?
A: The value was 55%.

Q: What about the “% herbicidal activity” value ([4]; Table 1.23, DIGIN growth stage 16-18, height 15-25 cm, A-1 50, B-2 600 g ai/ha, 21 DAT, water 200 l/ha) of the same compound?
A: The value was 65%.

Q: What about the “% herbicidal activity” value ([4]; Table 1.24, DIGIN growth stage 67, height 100 cm, A-1 50, B-2 400 g ai/ha, 21 DAT, water 200 l/ha) of the same compound?
A: Its value is 17%.

Q: And the “% herbicidal activity” value ([4]; Table 1.24, DIGIN growth stage 67, height 100 cm, A-1 50, B-2 600 g ai/ha, 21 DAT, water 200 l/ha)?
A: Its value is 37%.

Q: And the “% herbicidal activity” value ([4]; Table 1.25, DIGIN in tillering stage, height 8-20 cm, A-1 50, B-2 400 g ai/ha, 21 DAT, water 200 l/ha)?
A: The value was 25%.

Q: What about the “% herbicidal activity” value ([4]; Table 1.25, DIGIN in tillering stage, height 8-20 cm, A-1 50, B-2 600 g ai/ha, 21 DAT, water 200 l/ha) of the same compound?
A: The value was 43%.

Q: What about the “% herbicidal activity” value ([4]; Table 1.26, DIGIN in tillering stage, height 50-70 cm, A-1 50, B-2 400 g ai/ha, 21 DAT, water 200 l/ha) of the same compound?
A: The value was 15%.

Q: And the “% herbicidal activity” value ([4]; Table 1.26, DIGIN in tillering stage, height 50-70 cm, A-1 50, B-2 600 g ai/ha, 21 DAT, water 200 l/ha)?
A: The value was 15%.

Q: What about the “% herbicidal activity” value ([4]; Table 1.3, DIGIN height 60-80 cm, A-1 25, B-2 400 g ai/ha, 14 DAT, water 200 l/ha) of the same compound?
A: Its value is 68%.

Q: What about the “% herbicidal activity” value ([4]; Table 1.3, DIGIN height 60-80 cm, A-1 50, B-2 400 g ai/ha, 14 DAT, water 200 l/ha) of the same compound?
A: Its value is 68%.

Q: And the “% herbicidal activity” value ([4]; Table 1.5, DIGIN growth stage 16-18, height 15-25 cm, A-1 50, B-2 400 g ai/ha, 14 DAT, water 200 l/ha)?
A: Its value is 60%.

Q: And the “% herbicidal activity” value ([4]; Table 1.5, DIGIN growth stage 16-18, height 15-25 cm, A-1 50, B-2 600 g ai/ha, 14 DAT, water 200 l/ha)?
A: Its value is 70%.

Q: And the “% herbicidal activity” value ([4]; Table 1.7, DIGIN height 50-70 cm, tillering stage, B-2 solo 600 g ai/ha, 14 DAT, water volume 200 l/ha, 0.5% v/v MSO)?
A: The value was 17%.

Q: And the “% herbicidal activity” value (ELEIN (Eleusine indica); Table 1.10, ELEIN growth stage 23-25, height 3-5 cm, A-1 25, B-2 400 g ai/ha, 20 DAT, water 200 l/ha)?
A: Its value is 35%.

Q: And the “% herbicidal activity” value (ELEIN (Eleusine indica); Table 1.1, ELEIN growth stage 24, B-2 solo 400 g ai/ha, 14 DAT, water volume 100 l/ha, 0.5% v/v MSO)?
A: The value was 12%.

Q: And the “% herbicidal activity” value (ELEIN (Eleusine indica); Table 1.14, ELEIN growth stage 24, A-1 25, B-2 400 g ai/ha, 21 DAT, water 100 l/ha)?
A: The value was 0%.

Q: And the “% herbicidal activity” value (ELEIN (Eleusine indica); Table 1.15, ELEIN height 25 cm, A-1 25, B-2 400 g ai/ha, 21 DAT, water 100 l/ha)?
A: The value was 10%.

Q: What about the “% herbicidal activity” value (ELEIN (Eleusine indica); Table 1.15, ELEIN height 25 cm, A-1 50, B-2 400 g ai/ha, 21 DAT, water 100 l/ha) of the same compound?
A: Its value is 10%.

Q: And the “% herbicidal activity” value (ELEIN (Eleusine indica); Table 1.18, ELEIN growth stage 24, A-1 25, B-2 400 g ai/ha, 21 DAT, water 200 l/ha)?
A: Its value is 0%.

Q: What about the “% herbicidal activity” value (ELEIN (Eleusine indica); Table 1.18, ELEIN growth stage 24, A-1 50, B-2 400 g ai/ha, 21 DAT, water 200 l/ha) of the same compound?
A: The value was 0%.

Q: And the “% herbicidal activity” value (ELEIN (Eleusine indica); Table 1.21, ELEIN growth stage 24, A-1 25, B-2 400 g ai/ha, 21 DAT, water 200 l/ha)?
A: The value was 0%.

Q: What about the “% herbicidal activity” value (ELEIN (Eleusine indica); Table 1.21, ELEIN growth stage 24, A-1 50, B-2 400 g ai/ha, 21 DAT, water 200 l/ha) of the same compound?
A: Its value is 0%.

Q: What about the “% herbicidal activity” value (ELEIN (Eleusine indica); Table 1.4, ELEIN growth stage 24, A-1 50, B-2 400 g ai/ha, 14 DAT, water 200 l/ha) of the same compound?
A: The value was 18%.

Q: What about the “% herbicidal activity” value (ELEIN (Eleusine indica); Table 1.9, ELEIN growth stage 23-25, height 3-5 cm, A-1 25, B-2 400 g ai/ha, 20 DAT, water 100 l/ha) of the same compound?
A: The value was 20%.

Q: What about the “% herbicidal activity” value (EPHHI (Euphorbia hirta)) of the same compound?
A: The value was 20%.

Q: And the “% herbicidal activity” value [5]?
A: Its value is 20%.

Q: How did the “% herbicidal activity” value [6] turn out when CP(=O)(O)CC[C@H](N)C(=O)O.N [B-6, glufosinate-P-ammonium] was run?
A: The value was 39%.

Q: And the “% herbicidal activity” value (GLXMA (Glycine max))?
A: Its value is 70%.

Q: What about the “% herbicidal activity” value [7] of the same compound?
A: The value was 27%.
